Columns and labels:
[1] = test system: IFN induction in dsDNA-stimulated human whole blood; experiment: Human whole blood assay, dsDNA transfection, IFNα2a production (hWB IC50); type: cell-based;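 note: cGAS pathway activity, IFNα2a in plasma by MSD immunoassay after 22 h at 37 °C, 8 concentrations up to 10 µM in 0.1% DMSO, DMSO controls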
Procedure: For the detection of cellular cGAS activity human whole blood was stimulated by transfection with double stranded DNA. Pathway activity was monitored by measuring the IFNα2α production.
Typically, 8 concentrations were used with the highest concentration at 10 μM in the final assay volume followed by ˜1:5 dilution steps. DMSO concentration was set to 0.1% in the final assay volume. The 96-well assay plate contained 10 test compounds, and DMSO in control wells.
Whole blood was kept at room temperature for a maximum of 3 hours after collection until use in the assay.
160 μl of the whole blood samples was transferred to each well of the 96-well assay plates filled with compound/OptiMEM. All assay plates were prepared as duplicates with blood from different donors. Blood plates were kept at room temperature for 60 minutes and continuous shaking with 450 rpm, covered with the lid, but not sealed.
20 μl OptiMEM and 9.6:1 Fugene was added to all low control wells.
After covering assay plates with aera seals and the lid, blood plates were kept at room temperature for 30 minutes and continuous shaking with 450 rpm, followed by an overnight incubation of 22 h at 37° C. in the incubator, without shaking.
U-Plex MSD GOLD 96-well Small Spot Strepavidin SECTOR Plates (Meso Scale Diagnostics #L45SA-5) were coated with 25 μl diluted capture antibody. Coated plates were incubated for 60 min at room temperature under continuous shaking at 700 rpm. MSD IFNα-2a plates were washed three times with 150 μl wash buffer (1×HBSS, 0.05% Tween).
After blocking the plates with 100 μl block solution/well (1×HBSS with 0.2% Tween, 2% BSA) for 60 min at room temperature and continuous shaking at 700 rpm, plates were emptied as dry as possible by dumping just before continuing with the human plasma.
Whole Blood assay plates were centrifuged at 1600 rpm for 10 minutes. 25 μl of supernatant was transferred with a pipetting robot from each whole blood plate to the corresponding IFNα-2a plate.
Plates were sealed with microplate seals and kept at room temperature again under continuous shaking at 700 rpm for two hours.
Next MSD IFNα-2a plates were washed three times with 150 μl wash buffer (1×HBSS, 0.05% Tween), before adding 25 μl MSD SULFO-TAG IFNα-2a Antibody solution (1:100 diluted in Diluent 3 (Meso Scale Diagnostics #R50AP-2) to each well of the plates.
Afterwards plates were sealed with microplate seals and kept at room temperature again under continuous shaking at 700 rpm for two hours. Finally, MSD IFNα-2α plates were washed three times with 150 μl wash buffer (1×HBSS, 0.05% Tween). 150 μl 2× Read buffer was added to each well and plates were immediately measured with the MSD Sector S600 Reader using the vendor barcode.
For data evaluation and calculation, % control calculation of each well was based on the mean of high (DNA stimulated control) and mean of low (unstimulated control) controls by using the following formula: [counts(sample)−counts(low))/(counts(high)−counts(low))]*100
The IC50 values were calculated using the standard 4 parameter logistic regression formula. Calculation: [y=(a−d)/(1+(x/c)^b)+d], a=low value, d=high value; x=conc M; c=1C50 M; b=slope

Human cGAS = Human cGAS (Homo sapiens (Human), UniProt Q8N884); experiment: Human cGAS enzyme assay (hcGAS IC50, in vitro), cGAMP formation by RapidFire MS; type: biochemical; details: 45 bp dsDNA, GTP/ATP;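 note: compounds preincubated 60 min, then GTP and ATP (30 µM each) added for 90 min at room temperature, cGAMP read relative to cyclic-di-GMP internal standard, no-enzyme/DNA wells as 0%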
[2] = test system: IFN induction in cGAMP-stimulated THP1 cells; experiment: cGAMP stimulated counter cell assay, THP1-Dual cells, Lucia luciferase reporter (THP1(cGAMP) IC50); type: cell-based; details: Homo sapiens, THP-1, THP1-Dual cells stimulated with 10 μM cGAMP;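 note: IRF-driven Lucia luciferase luminescence after 18 h at 37° C, compound series topping at 10 µM with 1% DMSO, unstimulated wells as 0% and DMSO wells as 100%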
Source text: 6.2 Method: Human cGAS Cell Assay and cGAMP Stimulated Counter Cell Assay (THP1(vir) IC50 and THP1(cGAMP) IC50)
THP1-Dual™ cells (InvivoGen #thpd-nfis) expressing IRF dependent Lucia luciferase reporter were used as basis for both assays.
(§1) For the counter assay, cells were stimulated by cGAMP (SigmaAldrich #SML1232) to activate the identical pathway independent and directly downstream of cGAS (measurement of THP1(cAMP) IC50). Pathway activity was monitored by measuring the Lucia luciferase activity induced by either DNA stimulated cGAS enzyme activity (measurement of THP1^(vir) IC50) or by cGAMP directly (measurement of THP1(cAMP) IC50, counter assay).
Compounds were delivered in 10 mM DMSO solution, serially diluted and transferred to the 384 well assay plate (Greiner #781201) using an Echo acoustic dispenser. Typically, 8 concentrations were used with the highest concentration at 10 μM in the final assay volume followed by ˜1:5 dilution steps. DMSO concentration was set to 1% in the final assay volume. The 384 well assay plate contained 21 test compounds (column 1-22), and DMSO in column 23 and 24.
(§2) 30 μL of the cell/virus-mix were added to each well of the compound plate from column 1-23 via MultiDrop Combi dispenser (5000 cells/well). In column 24, 30 μl/5000 cells/well without virus were added as a low control.
(§3) The plates were then incubated for 18 h at 37° C. in a humidified incubator.
(§4) Following that, 15 μL of QuantiLuc detection reagent (InvivoGen #rep-qlcg5) were added to each well using a MultiDrop Combi. Measurement was done immediately after the addition using an EnVision reader (US-luminescence read-mode).
Data Evaluation and Calculation:
(§5) For data evaluation and calculation, the measurement of the low control was set as 0% control and the measurement of the high control was set as 100% control. The IC50 values were calculated using the standard 4 parameter logistic regression formula. Calculation: [y=(a−d)/(1+(x/c)^b)+d], a=low value, d=high value; x=conc M; c=1C50 M; b=slope

[3] = test system: IFN induction in virus-stimulated THP1 cells; experiment: Human cGAS cell assay, baculovirus-stimulated THP1-Dual cells, Lucia luciferase reporter (THP1(vir) IC50); type: cell-based; details: for IC50: Homo sapiens, THP-1, baculovirus-stimulated THP1-Dual cells, 18 h; for Ratio THP(cGAMP) IC50/THP(vir) IC50: selectivity for cGAS inhibition;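 for all read-outs here: IRF-dependent luminescence, 8 concentrations up to 10 µM in 1% DMSO, 0% = unstimulated cells, 100% = DMSO plus virus, counter assay stimulated with cGAMP downstream of cGAS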
Source text: THP1-Dual™ cells (InvivoGen #thpd-nfis) expressing IRF dependent Lucia luciferase reporter were used as basis for both assays. For the detection of cellular cGAS activity cells were stimulated by a baculovirus (pFastbac-1, Invitrogen, no coding insert) infection that delivers the cGAS enzyme stimulating double-stranded DNA (measurement of THP1(vir) IC50).
as §1
Typically, 8 concentrations were used with the highest concentration at 10 μM in the final assay volume followed by ˜1:5 dilution steps. DMSO concentration was set to 1% in the final assay volume. The 384 well assay plate contained 21 test compounds (column 1-22), and DMSO in column 23 and 24.
The baculovirus solution was then added 1:200 (may have varied according to virus batch) to the cells (measurement of THP1(vir) IC50).
as §2, §3, §4
Data Evaluation and Calculation:
as §5

Sequence of Human cGAS (Q8N884 whole entry): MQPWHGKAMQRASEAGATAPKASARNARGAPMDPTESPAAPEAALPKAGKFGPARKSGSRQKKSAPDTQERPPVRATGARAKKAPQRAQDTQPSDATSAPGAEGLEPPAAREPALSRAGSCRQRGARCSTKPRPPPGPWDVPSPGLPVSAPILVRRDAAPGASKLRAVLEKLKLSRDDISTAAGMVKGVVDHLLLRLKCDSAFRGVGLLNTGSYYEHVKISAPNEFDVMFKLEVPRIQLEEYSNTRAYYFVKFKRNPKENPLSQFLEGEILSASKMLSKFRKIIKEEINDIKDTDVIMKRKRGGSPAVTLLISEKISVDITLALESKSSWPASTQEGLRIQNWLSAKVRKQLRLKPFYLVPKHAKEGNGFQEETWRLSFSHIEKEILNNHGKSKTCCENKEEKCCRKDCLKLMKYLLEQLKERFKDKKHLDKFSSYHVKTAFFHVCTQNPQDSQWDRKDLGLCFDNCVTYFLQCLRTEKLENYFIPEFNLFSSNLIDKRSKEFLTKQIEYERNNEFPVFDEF

| SMILES | IC50 [1] [nM] | IC50 (Human cGAS) [nM] | IC50 [2] [µM] | IC50 [3] [nM] | Ratio THP(cGAMP) IC50/THP(vir) IC50 [3] |
| --- | --- | --- | --- | --- | --- |
| O=C(O)[C@@H]1C[C@H](Oc2ncc(Br)cc2C2(F)CCS(=O)(=O)CC2)CN1c1nc(C(F)F)nc2c1oc1ccccc12 [Example 2.04] | 115 | 5 | > 16.6 | 638 | >26 |
| N#CN1CCC(F)(c2cc(Cl)cnc2O[C@H]2C[C@@H](C(=O)O)N(c3nc(C(F)F)nc4c3oc3ccccc34)C2)CC1 [Example 2.05] | 945 | 6 | 16.7 | 718 | 23 |
| CO[C@]1(c2cc(Cl)cnc2O[C@H]2C[C@@H](C(=O)O)N(c3nc(C(F)F)nc4c3oc3ccccc34)C2)CCS(=O)(=O)C[C@@H]1C [Example 2.06] | 287 | 8 | 14.6 | 314 | 46 |
| C#Cc1cnc(O[C@H]2C[C@@H](C(=O)O)N(c3nc(C(F)(F)F)nc4c3oc3ccccc34)C2)c(C2(F)CCS(=O)(=O)CC2)c1 [Example 2.07] | 97 | 2 | > 16.6 | 688 | >24 |
| CC1(C)C[C@](F)(c2cc(Cl)cnc2O[C@H]2C[C@@H](C(=O)O)N(c3nc(C(F)F)nc4c3oc3ccccc34)C2)CCS1(=O)=O [Example 2.08] | 28 | 5 | 12 | 25 | 479 |
| CC1(C)C[C@](F)(c2cc(Cl)cnc2O[C@H]2C[C@@H](C(=O)O)N(c3nc(C(F)(F)F)nc4c3oc3ccccc34)C2)CCS1(=O)=O [Example 2.09] | 90 | 11 | 5.49 | 168 | 33 |
| C[C@H]1CS(=O)(=O)CC[C@]1(F)c1cc(Cl)cnc1O[C@H]1C[C@@H](C(=O)O)N(c2nc(C(F)(F)F)nc3c2oc2ccccc23)C1 [Example 2.10] | 15 | 3 | 18.8 | 4 | 4605 |
| C#Cc1cnc(O[C@H]2C[C@@H](C(=O)O)N(c3nc(C(F)F)nc4c3oc3ccccc34)C2)c([C@@]2(F)CCS(=O)(=O)C[C@@H]2C)c1 [Example 2.11] | 3 | 2 | > 16.6 | 4 | >3829 |
| C#Cc1cnc(O[C@H]2C[C@@H](C(=O)O)N(c3nc(C(F)(F)F)nc4c3oc3ccccc34)C2)c([C@@]2(F)CCS(=O)(=O)C[C@@H]2C)c1 [Example 2.12] | 8 | 3 | 21.8 | 8 | 2619 |
| O=C(O)[C@@H]1C[C@H](Oc2ncc(Cl)cc2[C@@]2(F)CCN3C(=O)OC[C@H]3C2)CN1c1nc(C(F)F)nc2c1oc1ccccc12 [Example 2.13] | 582 | 7 | > 16.6 | 818 | >20 |
| C#Cc1cnc(O[C@H]2C[C@@H](C(=O)O)N(c3nc(C(F)F)nc4c3oc3ccccc34)C2)c([C@]2(F)CCS(=O)(=O)C[C@H]2C)c1 [Example 2.14] | 124 | 5 | 7.76 | 248 | 31 |
| C#Cc1cnc(O[C@H]2C[C@@H](C(=O)O)N(c3nc(C(F)(F)F)nc4c3oc3ccccc34)C2)c([C@]2(F)CCS(=O)(=O)C[C@H]2C)c1 [Example 2.15] | 291 | 6 | 10.3 | 207 | 50 |
| C[C@H]1COCC[C@]1(F)c1cc(Br)cnc1O[C@H]1C[C@@H](C(=O)O)N(c2nc(C(F)F)nc3c2oc2ccccc23)C1 [Example 2.16] | 325 | 4 | > 16.6 | 125 | 133 |
| CC#Cc1cnc(O[C@H]2C[C@@H](C(=O)O)N(c3nc(C(F)(F)F)nc4c3oc3ccccc34)C2)c([C@@]2(F)CCN(C3COC3)C[C@@H]2C)c1 [Example 2.17] | 287 | 96 | 3.92 | 382 | 10 |
| CC#Cc1cnc(O[C@H]2C[C@@H](C(=O)O)N(c3nc(C(F)F)nc4c3oc3ccccc34)C2)c([C@@]2(F)CCN(C(C)=O)C[C@@H]2C)c1 [Example 2.18] | 97 | 13 | 12.6 | 59 | 215 |
| C#Cc1cnc(O[C@H]2C[C@@H](C(=O)O)N(c3nc(C(F)(F)F)nc4c3oc3ccccc34)C2)c([C@@]2(F)CCN(C(C)=O)C[C@@H]2C)c1 [Example 2.19] | 57 | 5 | 9.96 | 23 | 435 |
| C#Cc1cnc(O[C@H]2C[C@@H](C(=O)O)N(c3nc(C(F)F)nc4c3oc3ccccc34)C2)c([C@@]2(F)CCN(C(C)=O)C[C@@H]2C)c1 [Example 2.20] | 25 | 4 | 9.89 | 17 | 583 |
| CNc1cc(-c2cnc(O[C@H]3C[C@@H](C(=O)O)N(c4nc(C(F)F)nc5c4oc4ccccc45)C3)c([C@@]3(F)CCOC[C@@H]3C)c2)ccn1 [Example 3.02] | 53 | 2 | 4.71 | 23 | 201 |
| COc1cc(-c2cnc(O[C@H]3C[C@@H](C(=O)O)N(c4nc(C(F)F)nc5c4oc4ccccc45)C3)c([C@@]3(F)CCN(C(C)=O)C[C@@H]3C)c2)c(F)cn1 [Example 3.03] | 53 | 12 | 10.4 | 18 | 568 |
| CC(=O)N1CC[C@](F)(c2cc(-c3cccc(N(C)C)c3)cnc2O[C@H]2C[C@@H](C(=O)O)N(c3nc(C(F)F)nc4c3oc3ccccc34)C2)[C@@H](C)C1 [Example 3.04] | 46 | 29 | 10.5 | 16 | 650 |
| C#Cc1cnc(O[C@H]2C[C@@H](C(=O)O)N(c3nc(C(F)(F)F)nc4c3oc3ccccc34)C2)c(C23CCOCC2C3)c1 (stereo partly drawn) [Example 4.01, (2S,4S)-4-[(5-ethynyl-3-{3-oxabicyclo[4.1.0]heptan-6-yl}pyridin-2-yl)oxy]-1-[4-(trifluoromethyl)-8-oxa-3,5-diazatricyclo[7.4.0.0^2,7]trideca-1(13),2,4,6,9,11-hexaen-6-yl]pyrrolidine-2-carboxylic acid] | 1500 | 8 | > 16.6 | 784 | >21 |
| O=C(O)[C@@H]1C[C@H](Oc2ncc(-n3cc(Cl)cn3)cc2C2(F)CCOCC2)CN1c1nc(C(F)F)nc2c1oc1ccccc12 [Example 5.01, (2S,4S)-4-{[5-(4-chloro-1H-pyrazol-1-yl)-3-(4-fluorooxan-4-yl)pyridin-2-yl]oxy}-1-[4-(difluoromethyl)-8-oxa-3,5-diazatricyclo[7.4.0.0^2,7]trideca-1(13),2,4,6,9,11-hexaen-6-yl]pyrrolidine-2-carboxylic acid] | 2890 | 12 | > 16.6 | 1000 | >17 |
| C[C@H]1COCC[C@]1(F)c1cc(-c2cnn(C(F)F)c2)cnc1O[C@H]1C[C@@H](C(=O)O)N(c2nc(C(F)F)nc3c2oc2ccccc23)C1 [Example 6.01, (2S,4S)-4-({5-[1-(Difluoromethyl)-1H-pyrazol-4-yl]-3-[(3S,4R)-4-fluoro-3-methyloxan-4-yl]pyridin-2-yl}oxy)-1-[4-(difluoromethyl)-8-oxa-3,5-diazatricyclo[7.4.0.0^2,7]trideca-1(9),2(7),3,5,10,12-hexaen-6-yl]pyrrolidine-2-carboxylic acid] | 82 | 5 | > 9.99 | 35 | >289 |
| COc1cncc(-c2cnc(O[C@H]3C[C@@H](C(=O)O)N(c4nc(C(F)F)nc5c4oc4ccccc45)C3)c([C@@]3(F)CCOC[C@@H]3C)c2)c1 [Example 6.02] | 45 | 6 | > 16.6 | 5 | >3212 |
| CNc1cccc(-c2cnc(O[C@H]3C[C@@H](C(=O)O)N(c4nc(C(F)F)nc5c4oc4ccccc45)C3)c([C@@]3(F)CCOC[C@@H]3C)c2)c1 [Example 6.03] | 38 | 10 | 9.51 | 35 | 276 |
| C[C@H]1COCC[C@]1(F)c1cc(-c2cccc(N(C)C)c2)cnc1O[C@H]1C[C@@H](C(=O)O)N(c2nc(C(F)F)nc3c2oc2ccccc23)C1 [Example 6.04] | 75 | 17 | 7.68 | 21 | 371 |
| C#Cc1cnc(O[C@H]2C[C@@H](C(=O)OC)N(c3nc(C(F)(F)F)nc4c3oc3ccccc34)C2)c([C@@]2(F)CCS(=O)(=O)C[C@@H]2C)c1 [Example P01] | 67 | 19100 | > 16.6 | 11 | – |
| COC(=O)[C@@H]1C[C@H](Oc2ncc(Cl)cc2[C@@]2(F)CCS(=O)(=O)C[C@@H]2C)CN1c1nc(C(F)F)nc2c1oc1ccccc12 [Example P02] | 140 | > 9950 | > 16.6 | 29 | – |
| COC(=O)[C@@H]1C[C@H](Oc2ncc(Cl)cc2[C@@]2(OC)CC(C)(C)S(=O)(=O)C[C@@H]2C)CN1c1nc(C(F)F)nc2c1oc1ccccc12 [Example P03] | 1990 | 7250 | 20.6 | 202 | – |

From patent US12043625B2, “Pyridine derivatives with c-linked cyclic substituents as cGAS inhibitors” (BOEHRINGER INGELHEIM INTERNATIONAL GMBH, priority 2021, dated 2024)
